Reference: US6060516A, “N^1 -propargylhydrazines, N^2 -propargylhydrazines and their analogs for the treatment of depression, anxiety and neurodegeneration” (CV Technologies, Inc., priority 1998, dated 2000)

How the values were obtained:
[1] = tested on: DSP-4 induced noradrenaline depletion in mouse hippocampus; experiment: Prevention of DSP-4 induced noradrenaline depletion in mouse hippocampus; type: in vivo; settings: for protection against DSP-4 induced noradrenaline depletion / neuroprotective effect: 10 mg/kg, mouse hippocampus, in words
Description: Neuroprotectant activity was evaluated by examining the prevention of DSP-4 induced noradrenaline depletion in mouse hippocampus as described in Yu, P. H., Davis, B. A., Fang, J. and Boulton, A. A. (1994), Neuroprotective effect of some monoamine oxidase-B inhibitors against DSP-4 induced noradrenaline depletion in the mouse hippocampus, J. Neurochem. 63: 1820-1828. Briefly, mice were injected (i.p.) with either 20% DMSO or potential neuroprotectants (10 mg/kg in 20% DMSO). One hour later they were injected with either water or DSP-4 (50 mg/kg in water). One week later the mice were killed and the brains removed and the hippocampus dissected out. The hippocampus was frozen and saved for estimation of noradrenaline and other aminergic neurotransmitters and their metabolites as in Sloley, B. D. and Goldberg J. I. (1991), Determination of γ-glutamyl conjugates of monoamines by means of high-performance liquid chromatography with electrochemical detection and application to gastropod tissues, J. Chromatog. 567: 49-56. The rest of the brain was frozen and retained for estimation of monoamine oxidase activities ex vivo as described earlier.

MAO-B = MAO-B inhibition ex vivo in DSP-4 treated mice (brain); parameters: species or system mouse
Description: Biochem. Pharmacol. 31: 1417-1424. Radiolabelled β-phenylethylamine was employed as a substrate for monoamine oxidase-B. The compounds of interest were either injected intraperitoneally in DMSO or administered by gavage in water for various periods. The animals were killed by decapitation and the brains and livers immediately removed and frozen until assayed for monoamine oxidase-B activity. Tissues were homogenized and appropriately diluted in buffer prior to incubation. Incubations proceeded at 37° C. for 10 minutes. Incubation was terminated by the addition of acid and the radiolabelled product (phenylacetic acid) was extracted and quantified by liquid scintillation counting procedures. Incubations were done in triplicate and incubations containing phenelzine were included for comparison. The percent inhibition of monoamine oxidase-B activity compared to controls containing no drug was calculated.
Neuroprotectant activity was evaluated by examining the prevention of DSP-4 induced noradrenaline depletion in mouse hippocampus as described in Yu, P. H., Davis, B. A., Fang, J. and Boulton, A. A. (1994), Neuroprotective effect of some monoamine oxidase-B inhibitors against DSP-4 induced noradrenaline depletion in the mouse hippocampus, J. Neurochem. 63: 1820-1828. Briefly, mice were injected (i.p.) with either 20% DMSO or potential neuroprotectants (10 mg/kg in 20% DMSO). […]

PC12 cells = experiment: PC12 neurite outgrowth (neurotrophic effect); type: cell-based; settings: for Index of Neurite Outgrowth: seven days
Description: The effects of CVT-P040 on neurite outgrowth in cell culture were investigated using an established PC 12 pheochromocytoma cell culture. The effects of CVT-P040 and nerve growth factor on neurite outgrowth were estimated using the method described by Rydel, R. E and Greene, L. A.(1987), Acidic and basic fibroblast growth factors promote stable neurite outgrowth and basic neuronal differentiation in cultures of PC12 cells, J. Neuroscience 7: 3639-3653. Briefly, PC12 cells were seeded and maintained in 100 cm^2 tissue culture dishes at 37° C. in RPMI1640 media containing 1% antibiotics, 10% heat inactivated horse serum and 5% fetal bovine serum in a water saturated atmosphere of 95% air and 5% CO2. The cells were mechanically dislodged and plated into 35 mm collagen-coated tissue culture dishes containing a total of 2.0 ml complete medium at a density of […]. The medium was changed 3 times/week. Cellular responses to CVT-P040 and nerve growth factor (NGF) were determined by counting the number of PC12 cells containing processes. Photographs of the cells were taken after seven days treatment. Two cell fields were chosen in each dish and the photographs developed and printed. […] The neurite index was calculated using the following formula; Neurite Index=total neurite score (ΣS)/ total cell number (ΣN); ΣS=S1×N+S2×N +S3×N+S4×N, where N is the number of cells in each cell field.

[2] = tested on: DSP-4 induced noradrenaline depletion in mouse hippocampus; experiment: Prevention of DSP-4 induced noradrenaline depletion in mouse hippocampus; type: in vivo; settings: 10 mg/kg then DSP-4 50 mg/kg; saline control experiment
[3] = tested on: NA, DA, 5-HT, 5-HIAA and DOPAC concentrations in rat hypothalamus; experiment: Rat hypothalamus amine and amine metabolite concentrations; type: in vivo; settings: 2 × 75 μmol/kg per os
[4] = 10 mg/kg i.p. then DSP-4 50 mg/kg, 20% DMSO control experiment

## C#CCN(N)CCc1ccccc1 [CVT-P040, N^1 -propargylphenelzine]
[1]; [4]
  % NA Restoration: 55.4%
  NA: 235 ± 26 ng/g
[1]
  protection against DSP-4 induced noradrenaline depletion / neuroprotective effect: significantly protected against DSP-4 induced noradrenaline depletion
MAO-B; [4]
  MAO-B % Inhibition: 20.3%
PC12 cells; CVT-P040 100 μM with 0.3 or 1.0 ng/ml NGF, against NGF alone, in words
  neurite index on coadministration with NGF: increased the neurite index above those cultures receiving 0.3 or 1.0 ng/ml NGF alone
PC12 cells; CVT-P040 100 μM with NGF 0.1 ng/ml
  Index of Neurite Outgrowth: 0.55 ± 0.03
PC12 cells; CVT-P040 100 μM with NGF 0.3 ng/ml
  Index of Neurite Outgrowth: 0.97 ± 0.06
PC12 cells; CVT-P040 100 μM with NGF 1.0 ng/ml
  Index of Neurite Outgrowth: 1.53 ± 0.07
PC12 cells; CVT-P040 100 μM, in words
  neurite outgrowth in PC12 cells: increased neurite outgrowth in PC12 cells
PC12 cells; CVT-P040 100 μM
  Index of Neurite Outgrowth: 0.35 ± 0.03

## C#CCN(CCc1ccccc1)NC(C)=O [CVT-P041, N^1 -propargyl-N^2 -acetylphenelzine]
[1]
  protection against DSP-4 induced noradrenaline depletion / neuroprotective effect: did not exhibit a neuroprotective effect
MAO-B; 10 mg/kg then DSP-4 50 mg/kg, saline control experiment
  MAO-B % Inhibition: -3.7%
[2]
  % NA Restoration: -43.2%
  NA: 168 ± 31 ng/g
[3]
  5-HT: 946 ng/g
  DA: 553 ± 129 ng/g

## NNCCc1ccccc1 [phenelzine, 1-(2-phenyl) ethylhydrazine, reference compound]
[3]
  5-HT: 1232 ± 87 ng/g
  DA: 607 ± 103 ng/g
